Laboratory results: patent US12187770B2, “Cyclic peptide from novel bone morphogenetic protein 2, preparation method therefor and application thereof” (Hangzhou Huibo Science and Technology Co., Ltd, priority 2019, dated 2025)
Bridge positions count the residues as written; N and C are the ends. Peptide text beside a SMILES is read from it.

Assay: Acute toxicity in animals
Conditions: in vivo

With CC[C@H](C)[C@@H]1NC(=O)[C@H](C)NC(=O)[C@H](CO)NC(=O)[C@H](CC(C)C)NC(=O)[C@H](CCC(=O)O)NC(=O)[C@H]([C@@H](C)O)NC(=O)[C@@H]2CCCN2C(=O)[C@H](C(C)C)NC(=O)[C@H](CO)NC(=O)[C@H](CO)NC(=O)[C@H](C)NC(=O)[C@H](CCCCN)NC(=O)[C@@H]2CCCN2C(=O)[C@H]([C@@H](C)CC)NC(=O)[C@H](CCCCN)NC(=O)[C@@H](N)CSSC[C@@H](C(=O)O)NC(=O)[C@H](C)NC(=O)[C@H](C(C)C)NC(=O)[C@H]([C@@H](C)CC)NC(=O)[C@H](Cc2c[nH]c3ccccc23)NC(=O)[C@H](CC(=O)O)NC(=O)CNC(=O)CNC(=O)[C@@H]2CCCN2C(=O)CNC(=O)[C@H](CC(C)C)NC(=O)[C@H](Cc2ccc(O)cc2)NC(=O)[C@H](CC(C)C)NC(=O)[C@H](CCSC)NC(=O)[C@H](CO)NC1=O [M-C-BMP2] (H-CKIPKASSVPTELSAISMLYLGPGGDWIVAC-OH; disulfide 1-31) as the compound, how does the “acute toxicity in animals” value read?
The value was “has not been found to have acute toxicity in animals”.
